Reference: patent US20260183297A1, “SELECTION OF PATIENTS FOR THE TREATMENT OF FADS1-MEDIATED DISEASES OR DISORDERS USING FADS-1 INHIBITORS” (AMGEN INC., priority 2022, published 2026)

Assay: Indirect calorimetry studies (CLAMS)
Assay type: in vivo, mouse
Settings: DIO mice, 30 mg/kg
Experimental: Twenty-four Fads1 KO and 24 WT mice entered the Comprehensive Laboratory Animal Monitoring System (CLAMS; Columbus Instruments, Columbus, Ohio—Oxymax Model 2018, 0233-004M, Oxymax for Windows v5.53 software, Hardware configuration 190395) before starting the HFD feeding phase, and again at 6 and 12 weeks on HFD. […] Body weight was measured daily, and food consumption was measured biweekly. Animals reentered the CLAMS on days 17-21 and on days 38-42. The volume of oxygen consumption (VO2), carbon dioxide production (VCO2), RER, and energy expenditure (HEAT) were measured during that period.

With `COc1ccn2c(=O)c(-c3cnn(CC(F)(F)C(F)(F)F)c3)c(C(F)(F)F)nc2c1` [Compound A, 8-methoxy-3-(1-(2,2,3,3,3-pentafluoropropyl)-1H-pyrazol-4-yl)-2-(trifluoromethyl)-4H-pyrido[1,2-a]pyrimidin-4-one] the body weight (42 days, vs vehicle) was “significantly reduced body weight”, the carbon dioxide production (42 days, vs vehicle) was “no differences” and the energy expenditure (42 days, vs vehicle) was “no differences”. The oxygen consumption (42 days, vs vehicle) was “no differences”, the “light cycle RER” value (at 17-23 days and 38-42 days) was “decreased” and the “activity in the dark cycle” value (vs vehicle-treated mice) was “trended to be more active”.
